Experimental findings from patent US20100324017A1, “ACYLGUANIDINE DERIVATIVE” (priority 2007, published 2010) are described below.

One experiment concerns the target T1, human 5-HT5A receptor (Homo sapiens, UniProt P47898).
T1 construct: expressed in transfected cells; membrane preparation
In words: Test of human 5-HT5A receptor binding inhibition ([3H]5-CT, HEK293 cell membrane). The settings on record: [3H]5-CT binding, membrane of HEK293 cell expressing human 5-HT5A receptor. The method, then: An ORF of a human 5-HT5A receptor (Genbank AF498985) was cloned from a human hippocampal cDNA library, and then inserted into a pCR2.1 vector (Invitrogen), and Escherichia coli having the plasmid was mass cultured. Next, the human 5-HT5A receptor full-length cDNA sequence was analyzed, recombined into a pCDNA3.1 vector (Invitrogen) as an expression vector, and mass cultured. A human embryonic kidney-induced cell HEK293 cell (ATCC) was seeded, and the resulting expression plasmid (1 μg) above was added thereto together with LIPOFECTAMINE 2000 (Invitrogen; 2 μl), a gene was introduced into the HEK293 cell, and then Geneticin (G418 sulfate 500 μg/ml; Kanto Chemical Co., Inc.) was used as a drug-resistant marker to screen the expressing cell. Thus prepared gene-expressing recombinant cell was cultured in a D-MEM, 10% FCS, 1% Pc./Sm., 500 μg/ml G418 culture medium for 3 days. This experimental operation was conducted in accordance with a gene operation experiment manual of a known method (Sambrook, J. et al, Molecular Cloning-A Laboratory Manual“, Cold Spring Harabor Laboratory, NY, 1989), etc., an instruction appended in a reagent or the like.
(1) Preparation of a Membrane from an HEK293 Cell Forcibly Expressing a Human 5-HT5A Receptor
An HEK293 cell forcibly expressing a human 5-HT5A receptor was cultured in an F500 plate, and scraped for collection using a scraper. After centrifugation, the precipitates were collected and an incubation buffer (50 mM Tris (HCl) PH 7.4, 10 mM Mg504, 0.5 mM EDTA) was added thereto. After homogenization, it was further centrifuged, an incubation buffer was added to the precipitate, and the mixture was well suspended. These operations were repeatedly conducted, the protein concentration was then measured, and the preparation of a membrane was completed.
(2) Experiment on Human 5-HT5A Receptor Binding Inhibition
The compound to be tested (0.3 to 300 nM) and a 100 μM 5-CT solution in DMSO were added to a 96-well plate at 2 μl/well. The number of the wells to be measured under the same condition in one experiment was set at 2, and an average value thereof was used. It was suspended in an incubation buffer, and a HEK293 cell membrane forcibly expressing a human 5-HT5A receptor that had been prepared at 200 μg/ml was added thereto at 100 μl/well. The mixture was incubated at room temperature for 15 minutes, and a [^3H]5-CT solution (2 nM [^3H]5-CT, an incubation buffer) was then added thereto at 100 μl/well.
Separate from this, 100 μl of the solution was dispersed to a liquid scintillation vial, 2 ml of Aquasol II (registered trademark) was added thereto, followed by stirring, and the radioactivity was then measured with a liquid scintillation counter. The solution was incubated at 37° C. for 60 minutes. The reaction liquid was sucked to a 96-well GF/C filter plate that had been preliminarily treated with 0.2% polyethyleneimine, and washed six times with an ice-cooled 50 mM Tris (pH 7.5) buffer. The GF/C filter plate was dried.
MicroscintTMPS (registered trademark) was added thereto at 40 μl/well. The radioactivity remaining on the GF/C filter plate was measured in a top counter.
For the inhibitory activity for the binding of the [^3H]5-CT by the compound to be tested in each experiment, IC50 value was calculated by taking the radioactivity when only DMSO was added as 0% inhibition, and the radioactivity when 1 μM 5-CT was added as 100% inhibition. Apart from this, a Ki value was calculated from the Kd value of the [^3H]5-CT that had been determined by Scatchard analysis.
Ki=IC50 (1+Concentration of the ligands added/Kd (4.95 nM))

For experiment [1], the system named is scopolamine-induced spontaneous alternation behavior disorder. Briefly: Scopolamine-induced spontaneous alternation behavior disorder in mice (Y-maze). It is filed as in vivo. The note with it: mouse, oral, dose 0.003 mg/kg; scopolamine 0.5 mg/kg i.p. The procedure:
An Improvement Effect for Scopolamine-Induced or MK-801-Induced Spontaneous Alternation Behavior in Mice
An improvement effect of the compound (I) for cognitive impairment was evaluated by the above-described well-known test method as a model of a short-term learning disorder.
Species: Male ddY mice/number of animals (number of animals per group): 6 to 10 animals per group
A mouse was introduced into the laboratory 1 hour before starting the test. The mouse was placed at one end of an arm in a Y-maze having equal lengths of arms in three directions, and was able freely explored for 8 minutes with the number of the entries into the arms were counted. Furthermore, a spontaneous alternation behavior was defined as consecutive entries into each of the three arms, and an alternation rate was defined as the percentage of the number of time of this behavior relative to the total number of the entries, and calculated by the following equation.
Alternation rate (%)=(number of spontaneous alternation behaviors/total number of entries−2)×100.
The compound to be tested was orally administered 50 minutes before the initiation of the test, and 30 minutes later, 0.5 mg/kg of scopolamine or 0.15 mg/kg of MK-801 (in the normal group, physiological saline) was intraperitoneally administered. Furthermore, for the normal group (the group administered with physiological saline) and the control group (the group administered with 0.5 mg/kg scopolamine or 0.15 mg/kg MK-801), a solvent (vehicle) was orally administered when the compound to be tested was administered. For the normal group, physiological saline was intraperitoneally administered when scopolamine was administered.
The alternation rate (%) is expressed as an average value in each group (mean±SE). In regard to the alternation rate (%), in the case where a significant difference between the normal group and the control group (Student's T test) was found, it was considered that there was an establishment of learning disorder by the administration of scopolamine or MK-801. By carrying out the Dunnett evaluation for the group administered with the compound to be tested relative to the control group, the presence or absence of the learning disorder action of the compound to be tested was determined. In each evaluation, it was considered that there was a tendency at p<0.10, and there was a significant difference at p<0.05.

The structures appear in SMILES notation.

T1 sequence (P47898 whole entry): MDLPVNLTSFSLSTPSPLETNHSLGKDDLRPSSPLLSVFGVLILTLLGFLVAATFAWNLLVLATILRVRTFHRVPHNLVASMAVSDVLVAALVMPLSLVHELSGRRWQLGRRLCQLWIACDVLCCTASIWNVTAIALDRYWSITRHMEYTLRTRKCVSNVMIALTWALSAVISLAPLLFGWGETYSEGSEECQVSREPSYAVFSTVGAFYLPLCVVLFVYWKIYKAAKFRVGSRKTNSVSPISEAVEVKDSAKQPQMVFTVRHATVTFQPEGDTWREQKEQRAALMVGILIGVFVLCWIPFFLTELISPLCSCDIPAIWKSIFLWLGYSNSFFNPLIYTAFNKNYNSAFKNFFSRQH

The term Ki denotes a measure of affinity in units of concentration, obtained from inhibition or displacement. A high value points to weaker binding. For `CC(C)n1c2cc(C(=O)N=C(N)N)ccc2c2c(CO)cccc21` [Example 65], the inhibitory constant (Ki) at human 5-HT5A receptor was no more than 50 nM. The “inhibition of scopolamine-induced spontaneous alternation behavior disorder” value in experiment [1] is reported as “significantly inhibited”.
For `NC(N)=NC(=O)c1ccc2c3ccccc3n(C3CCOCC3)c2c1` [Example 25], the inhibitory constant (Ki) at human 5-HT5A receptor came to 0.51 nM. Besides, the “inhibition of scopolamine-induced spontaneous alternation behavior disorder” value in experiment [1] is recorded as “significantly inhibited”.
